Measurements taken from US6756200B2, “Aberrantly methylated genes as markers of breast malignancy” (The Johns Hopkins University School of Medicine, priority 2001, dated 2004).
“Also recorded” adds a separate entry of the source.

Legend:
Assay type in all cases: cell-based, human
WT1 = WT1 expression by RT-PCR after treatment of breast cancer cell lines with 5-aza-dC or TSA
From the text: (§1) Cell lines and finite life span cultures Cell lines were obtained from ATCC (Rockville, Md.) and grown according to conditions specified. Also utilized were three independent cultures of finite life span human mammary epithelial cells (HMEC): 16637 (Clonetics, Walkersville, Md.) and 1-26, 3-14 (kindly provided by Dr. Steve Ethier, Univ. Michigan, Ann Arbor, Mich.).
RT-PCR for WT1 mRNA Methods for RNA extraction and RT-PCR are known to those of skill in the art. The sequences of the primers used are as follows: for amplifying the 555 bp region surrounding WT1 exon 5, 5′-[…]-3′ (sense, nucleotides 882-901; Q ID NO:1) and 5′-[…]-3′ (antisense, nucleotides 1416-1437; SEQ ID NO:2); for amplifying the 382 bp region surrounding the KTS insert, 5′-[…]-3′ (sense, nucleotides 1320-1339; SEQ ID NO:3) and 5′-[…]-3′ (antisense, nucleotides 1685-1702; SEQ ID NO:4). Amplification was performed using a hot-start protocol: samples were heated to 94° C. for 4 minutes and then cooled to 80° C. prior to the addition of Taq polymerase (RedTaq, Sigma, St. Louis, Mo.). Samples were then heated to 94° C. for 30 seconds followed by either 50° C. for 30 seconds (for the KTS primers) or 56° C. for 30 seconds (for the Exon 5 primers) and then 72° C. for 1 minute for 40 cycles. PCR products were resolved by electrophoresis, using a 2% agarose gel for the exon 5-splice variants and a 12% polyacrylamide gel to resolve the KTS insert variants. Co-amplification of the ribosomal RNA 36B4 was performed as an internal control using the following primers: 5′-[…]-3′ (sense; SEQ ID NO:5) and 5′-[…]-3′ (antisense; SEQ ID NO:6).

14.3.3σ = 14.3.3σ expression in the same treated samples; conditions: same samples: MDA-MB-231 and MCF-7 cells treated with 5-aza-deoxyC or TSA
From the text: as §1

cyclin D2 promoter = experiment: Methylation-specific PCR of the cyclin D2 promoter after 5-aza-dC; conditions: MDAMB231 and MCF7 cells; 0.75 μM 5-aza-dC
Protocol: Methylation-specific PCR (MSP). One μg genomic DNA or the 50 ul extract of microdissected cells was treated with sodium bisulfite as described in Herman J G, (1996), and was analyzed by MSP using primer sets located within the CpG-rich island in the cyclin D2 promoter. Primers specific for unmethylated DNA were 5′-[…]-3′ (sense; SEQ ID NO:21) and 5′-[…]-3′ (antisense; SEQ ID NO:22) and yielded a 223 base-pairs PCR product. Primers specific for methylated DNA were 5′-[…]-3′ (sense; SEQ ID NO:23) and 5′-[…]-3′ (antisense; SEQ ID NO:24) and yielded a 276 base-pair PCR product. The PCR conditions were as follows: 1 cycle of 95° C. for 5 min; 35 cycles of 95° C. for 30s, 55° C. for 30s and 72° C. for 45s; and 1 cycle of 72° C. for 5 min.

cyclin D2 = experiment: Cyclin D2 mRNA re-expression by RT-PCR after 5-aza-dC or TSA; conditions: MDAMB231 and MCF7 cells
Protocol: RT-PCR. […] PCR was performed using the primers [NT] (sense; SEQ ID NO:15) and [NT] […] (sense; SEQ ID NO: 17) and [NT] […] (sense; SEQ ID NO:19) and [NT] antisense; SEQ ID NO:20).

σ CpG island = experiment: Methylation-specific PCR of the σ CpG island after 5-aza-dC; conditions: Hs578t and MDA-MB-435 cells; 0.75 μM 5-aza-dC for 3 days
Protocol: Methylation-specific PCR (MSP). One μg genomic DNA was treated with sodium bisulfite as described in (Herman, et al. (1996) Proc. Natl. Acad. Sci. USA 93, 9821-9826), and was analyzed by MSP using a primer set that covered CG dinucleotide numbers 3, 4, 8 and 9. Primers specific for methylated DNA: 5′-[…]-3′ (sense; SEQ ID NO:37) and 5′-[…]-3′ (antisense; SEQ ID NO:38), and primers specific for unmethylated DNA: 5′-[…]-3′ (sense; SEQ ID NO:39) and 5′-[…]-3′(antisense; SEQ ID NO:40) yielded a 105-107 bp PCR product. The PCR conditions were as follows: 1 cycle of 95° C. for 5 min; 31 cycles of 95° C. for 45s, 56° C. for 30s and 72° C. for 30s; and 1 cycle of 72° C. for 4 min.
(§2) Cells were seeded at a density of 2×10^6 cells per 100-mm plate.

σ = σ gene expression by RT-PCR after 5-aza-dC; conditions: Hs578t and MDA-MB-435 cells; 0.75 μM 5-aza-dC for 3 days
Protocol: as §2
RT-PCR. […] PCR was performed using the σ-specific primers 5′-[…]-3′ (SEQ ID NO:41) and 5′-[…]-3′ (SEQ ID NO:42) using buffer conditions described herein. The PCR conditions were: 1 cycle of 95° C. for 5 min; 30 cycles of 60° C. for 45s, 72° C. for 45s and 95° C. for 45s. PCR samples were resolved by electrophoresis in a 2% agarose gel.

MDA-MB-231 cells = experiment: Growth inhibition (%) by cell counting with Trypan Blue
From the text: (§3) Cell cultures Human epithelial mammary cells (HEMC) from reduction mammoplasty including three mortal strains, 184, 48R and 172R, and two immortal strains, 184A1 and 184B5, were obtained and cultured according to the protocols designed by Dr Martha Stampfer (see the HMEC Homepage, http://www.lbl.gov/*mrgs/index.htlm) using Clonetics (Walkersville, Md., USA) reagents. Human breast cancer cell lines were maintained in Dulbecco's modified Eagle's medium (GIBCO) (Hs578t,MCF-7, MDA-MB-231 and T47D) or IMEM medium (Biofluids) (MDA-MB-435, MDA-MB-468, ZR751) with 5% fetal calf serum (FCS). For drug treatments, exponentially growing cells were seeded in 10 cm^2 plates at a density of 36105 cells/plate or in 6-well plates at 16105 cells/well. Cells were allowed to attach overnight before the addition of the appropriate concentration of 5-Aza-2′ deoxycytidine (5-Aza-CdR) (Sigma), Trichostatin A (TSA) (Sigma) or RA(Sigma). When reduction of retinoids was required, cells were treated in either medium with 0.5% FCS or charcoal-dextran stripped FCS (Hyclone). At the indicated time points, both attached and detached cells were harvested, counted with Trypan Blue (Life Technologies) and processed for DNA or RNA extraction. 5-Aza-CdR was dissolved in 0.45% NaCl containing 10 mM sodium phosphate (pH 6.8). Trichostatin A and all-trans-retinoic acid (RA) (Sigma) were reconstituted in absolute ethanol (solvent).

HOXA5 = HOXA5 mRNA re-expression by RT-PCR after 5-aza-dC; conditions: MDA-MB-231 cells; 0.75 μM 5-aza-dC
Protocol: RT-PCR was performed using primers: 5′ […]-3′ (sense; SEQ ID NO:75) and 5′[…]-3′ (antisense; SEQ ID NO:76).

MCF-7 cells = experiment: Pon A induction of HOXA5 in MCF-7 clones with ecdysone-inducible HOXA5: p53 pathway and apoptosis
From the text: Immunoblot Analysis: Proteins were visualized by Western analysis and 10% SDS-PAGE. The primary antibodies [anti-HOXA5 (HOXA5-2, BABCO), anti-p53 (AB-6, Oncogene Science), or anti-β-actin (AC-15, Sigma), anti-p21 (15091A, Pharmingen), anti-Mdm2 (65101A, Pharmingen), anti-PARP (AB-2, Oncogene Sciences), anti-dynein (Zymed) and anti- Na+, K+-ATPase (Ed Benz, Johns Hopkins) (also used as loading controls, with actin)] were used at 1:1000 dilution.
To test this possibility, breast cancer cells, MCF-7 and ZR75.1, which harbor wildtype p53 genes, were transfected with the full length HOXA5 and the ΔHOXA5 (homeodomain-deleted) expression plasmids and tested for colony-forming ability. No surviving colonies were obtained from HOXA5-transfected cells whereas those transfected with ΔHOXA5 and the vector control generated colonies with equal efficiency. To obtain stable cultures that could express HOXA5, clones of MCF-7 cells were generated in which the HOXA5 gene was placed under the control of an ecdysone-inducible promoter. Within 3 hours after induction of HOXA5 expression by the ecdysone analog, Ponasterone A (Pon A), the levels of p53 mRNA rose by 2-fold.

RAR β = RAR β expression by RT-PCR after drug treatment
Protocol: Human breast cancer cell lines were maintained in Dulbecco's modified Eagle's medium (GIBCO) (Hs578t,MCF-7, MDA-MB-231 and T47D) or IMEM medium (Biofluids) (MDA-MB-435, MDA-MB-468, ZR751) with 5% fetal calf serum (FCS). For drug treatments, exponentially growing cells were seeded in 10 cm^2 plates at a density of 36105 cells/plate or in 6-well plates at 16105 cells/well. […] When reduction of retinoids was required, cells were treated in either medium with 0.5% FCS or charcoal-dextran stripped FCS (Hyclone). At the indicated time points, both attached and detached cells were harvested, counted with Trypan Blue (Life Technologies) and processed for DNA or RNA extraction. 5-Aza-CdR was dissolved in 0.45% NaCl containing 10 mM sodium phosphate (pH 6.8). Trichostatin A and all-trans-retinoic acid (RA) (Sigma) were reconstituted in absolute ethanol (solvent).

RAR β2 promoter = experiment: Methylation of RAR β2 promoter CpG island (Southern blotting, MSP) after drug treatment; conditions: MCF7 cells; in the presence of RA
breast cancer cell lines = experiment: Growth inhibition of a panel of breast cancer cell lines by RA; conditions: T47D, MDA-MB-435, MCF7 and ZR75-1 cell lines; 1 μM RA, 48 h
From the text: as §3, with “Trichostatin A and all-trans-retinoic acid (RA) (Sigma) were reconstituted in absolute ethanol (solvent).” left out

[1] = 0.4 mM 5-Aza-CdR and/or 1 μM RA
[2] = 2 days, 100 ng/ml TSA and/or RA

## Nc1ncn([C@H]2C[C@H](O)[C@@H](CO)O2)c(=O)n1 [5-aza-dC, 5-aza-2′-deoxycytidine]
WT1; MCF-7 cells, 0.75 μM 5-aza-dC, listed as 5-aza-deoxyC
  WT1 expression: not seen; also recorded: did not cause WT1 expression
WT1; MDA-MB-231 cells, 0.75 μM 5-aza-dC, listed as 5-aza-deoxyC
  WT1 expression: results in re-expression of the gene; also recorded: resulted in WT1 expression
14.3.3σ
  expression of 14.3.3σ: restored expression
Cyclin D2 promoter
  cyclin D2 promoter methylation (MSP): partially demethylated
Cyclin D2; 0.75 μM 5-aza-dC
  cyclin D2 mRNA expression (RT-PCR): restored
σ CpG island
  methylation of the σ CpG rich region (MSP): demethylation
σ
  σ gene expression (RT-PCR): reactivation of gene expression
MDA-MB-231 cells; [1]
  growth inhibition: 63%
HOXA5
  expression of HOXA5 mRNA: re-initiated

## CC(C)CC[C@@H](O)[C@](C)(O)[C@H]1CC[C@@]2(O)C3=CC(=O)[C@@H]4C[C@@H](O)[C@@H](O)C[C@]4(C)[C@H]3CC[C@]12C [Pon A, Ponasterone A]
MCF-7 cells
  DNA laddering: observed
  levels of Bax protein: not accompanied by a detectable change
  p53, p21, Mdm2 and HOXA5 induction (Western blotting): 2-5 fold
MCF-7 cells; acridine orange staining
  cells with micronucleus formation, membrane blebbing and ghost cell features: 70%
MCF-7 cells; after 48 hours
  cell death: 80-90%
MCF-7 cells; by 12 hours
  poly (ADP-ribose) polymerase cleavage: underwent cleavage
MCF-7 cells; by 24 hours
  cell morphology: cell shrinkage
MCF-7 cells; within 3 hours after induction
  levels of p53 mRNA: 2 fold

## CC1=C(/C=C/C(C)=C/C=C/C(C)=C/C(=O)O)C(C)(C)CCC1 [RA, all-trans-retinoic acid]
RAR β; T47D, MDA-MB-435, MCF7 and ZR75-1 cell lines, 1 μM RA, 48 h
  RAR β expression: induction of RAR β expression
RAR β2 promoter
  methylation at RAR β2: persistence of methylation
MDA-MB-231 cells; [1]
  growth inhibition: 52%
MDA-MB-231 cells; [2]
  growth inhibition: 52%
Breast cancer cell lines
  growth inhibition: growth inhibition

## CC(/C=C/C(=O)NO)=C\[C@@H](C)C(=O)c1ccc(N(C)C)cc1 [TSA, Trichostatin A]
WT1; MDA-MB-231 and MCF-7 cells (either cell line), 100 ng/ml TSA
  WT1 expression: no effect; also recorded: nor did TSA restore expression
14.3.3σ
  expression of 14.3.3σ: restored expression
Cyclin D2; 100 ng/ml TSA
  cyclin D2 mRNA expression (RT-PCR): re-expression
RAR β; MDA-MB-231 cells, 2 days, 100 ng/ml TSA with 1 μM RA
  RAR β mRNA expression (RT-PCR): can reactivate RAR β expression
MDA-MB-231 cells; [2]
  growth inhibition: 77%
